target: T1, cyclin D1/cdk 4 enzyme (Homo sapiens, UniProt P11802); test: CDK4 ELISA kinase assay (phospho-Rb ser 795 detection); assay type: biochemical; conditions: In Vitro Enzyme Assay, cyclin D1/cdk 4, read-out: CDK4 IC50
T1 construct: made in house; host or cells: Sf9 insect cells, recombinant baculovirus
Procedure: • 1. High-binding ELISA microtiter plates (Costar) were coated with 40 μl of the kinase substrate (GST fusion of C-terminal fragment of the retinoblastoma susceptibility gene product) diluted to 10 μg/ml in tris-buffered saline (TBS), overnight at 4° C. • 2. Non-specific binding sites were blocked for 1 hour at 4° C. with Superblock in TBS (Pierce), and the plates rinsed with water. • 3. For the screen, 1.5 μl of test compound (200 μg/ml stock in 20% DMSO/20 mM HEPES, pH 7.5) was added to each well. Final dose of the test compound in the assay was 10 ug/ml. […] The kinase reaction (30 μl) was dispensed into each well. Reactions contained 200 μM ATP, 0.5 mg/ml bovine serum albumin (BSA; Sigma), and 0.5 μl partially purified cyclin D1/cdk 4 enzyme*. The enzyme complex is expressed in insect cells (Sf9) infected with recombinant baculovirus and partially purified using ammonium sulfate fractionation. Reaction volumes were adjusted to 30 μl with kinase assay buffer (50 mM HEPES, pH 7.5, 10 mM MgCl2, 5% glycerol, 10 mM 2-mercaptoethanol). • *: For CDK2 assay, 1.0 μl cyclin E/CDK2 enzyme (diluted 1:1000 in kinase assay buffer) was used. The enzyme is isolated from insect cells (Sf9) infected with recombinant baculovirus and partially purified using ammonium sulfate fractionation. For CDK1 assay, 0.08 μl cyclin B/CDK1 enzyme [New England BioLabs; the enzyme is isolated from insect cells (Sf9) infected with recombinant baculovirus carrying human cdc 2 and human cyclin B] was used.
[…] • 5. Plates were incubated at 30° C. for 1 hour. • 6. The reaction mixture was removed by aspiration and replaced with 250 μl TBS containing 0.1% Tween-20 and 5% nonfat dry milk (blocking buffer). The plates were incubated at 4° C. for 1 hour. • 7. The blocking buffer was removed and replaced with 50 μl of the primary antibody [anti-phospho-Rb ser 795 (New England BioLabs) diluted 1:1000 in blocking buffer]. Incubation was at 4° C. for 16-20 hours. • 8. The wells were rinsed 3 times with 250 μl of TBS containing 0.1% Tween-20 followed by the addition of 50 μl of secondary antibody [anti-rabbit IgG conjugated to horseradish peroxidase (Amersham Life Science) diluted 1:1000 in blocking buffer]. • 9. After a 1 hour incubation at room temperature, the wells were rinsed 3 times with 250 μl of TBS/0.1% Tween 20. • 10. TMB (3,3′,5,5′-tetramethylbenzidine dihydrochloride) substrate solution (100 μl; Pierce) was added to each well and the color development reaction allowed to proceed 5-10 minutes at room temperature with shaking. The reaction was stopped by the addition of 2N sulfuric acid (100 μl) and the absorbance values read at 450 nm in a microplate reader (Molecular Devices). Analysis of Results: • 1. The percentage of the absorbance value in wells containing the test compound relative to control wells (no test agent) was determined. • 2. IC50 values of selected compounds were determined from inhibition curves, after subtracting background values (no substrate).

T1 sequence (P11802 whole entry, species assumed): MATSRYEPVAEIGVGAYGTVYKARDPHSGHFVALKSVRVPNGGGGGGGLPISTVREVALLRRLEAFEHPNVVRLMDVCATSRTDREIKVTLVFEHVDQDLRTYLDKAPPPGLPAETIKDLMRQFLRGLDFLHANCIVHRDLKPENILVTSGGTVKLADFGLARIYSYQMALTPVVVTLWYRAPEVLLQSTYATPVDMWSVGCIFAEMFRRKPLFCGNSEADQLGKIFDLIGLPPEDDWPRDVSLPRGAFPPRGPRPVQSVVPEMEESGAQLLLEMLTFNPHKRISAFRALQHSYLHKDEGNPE
T1 sequence (P24385 whole entry partner, species assumed): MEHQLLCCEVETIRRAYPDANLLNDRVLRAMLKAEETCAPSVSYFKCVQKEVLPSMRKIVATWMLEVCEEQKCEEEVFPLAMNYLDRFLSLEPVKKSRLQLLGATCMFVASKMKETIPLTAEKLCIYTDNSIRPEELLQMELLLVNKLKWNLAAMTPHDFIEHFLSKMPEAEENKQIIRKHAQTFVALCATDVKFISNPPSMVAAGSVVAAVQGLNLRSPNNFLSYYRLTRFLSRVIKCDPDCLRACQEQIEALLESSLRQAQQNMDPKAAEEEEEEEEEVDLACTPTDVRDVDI

Structure (SMILES)	IC50
O=C1NC(=O)c2ccc(C=CCc3ccccc3)cc2C1=CNc1ccc(CN2CCCC2)cc1 [Example 622, 6-(3-Phenyl-propenyl)-4-[(4-pyrrolidin-1-ylmethyl-phenylamino)-methylene]-4H-isoquinoline-1,3-dione]	37.2 µM
N#CCc1ccc(NC=C2C(=O)NC(=O)c3ccc(-c4cccc5ccccc45)cc32)cc1 [Example 623, {4-[(6-Naphthalen-1-yl-1,3-dioxo-2,3-dihydro-1H-isoquinolin-4-ylidenemethyl)-amino]-phenyl)-acetonitrile]	25.1 µM
N#CCc1ccc(NC=C2C(=O)NC(=O)c3ccc(-c4ccc5ccccc5c4)cc32)cc1 [Example 624, {4-[(6-Naphthalen-2-yl-1,3-dioxo-2,3-dihydro-1H-isoquinolin-4-ylidenemethyl)-amino]-phenyl}-acetonitrile]	13 µM
N#CCc1ccc(NC=C2C(=O)NC(=O)c3ccc(-c4cccc5cccnc45)cc32)cc1 [Example 625, {4-[(1,3-Dioxo-6-quinolin-8-yl-2,3-dihydro-1H-isoquinolin-4-ylidenemethyl)-amino]-phenyl}-acetonitrile]	14.8 µM
N#CCc1ccc(NC=C2C(=O)NC(=O)c3ccc(-c4csc5ccccc45)cc32)cc1 [Example 628, {4-[(6-Benzo[b]thiophen-3-yl-1,3-dioxo-2,3-dihydro-1H-isoquinolin-4-ylidenemethyl)-amino]-phenyl}-acetonitrile]	33.6 µM
N#CCc1ccc(NC=C2C(=O)NC(=O)c3ccc(-c4cc[nH]c4)cc32)cc1 [Example 631, (4-{[1,3-Dioxo-6-(1H-pyrrol-3-yl)-2,3-dihydro-1H-isoquinolin-4-ylidenemethyl]-amino}-phenyl)-acetonitrile]	4.2 µM
NS(=O)(=O)c1ccc(CNC=C2C(=O)NC(=O)c3ccc(-c4cccc5cccnc45)cc32)cc1 [Example 633, 4-{[(1,3-Dioxo-6-quinolin-8-yl-2,3-dihydro-1H-isoquinolin-4-ylidenemethyl)-amino]-methyl}-benzenesulfonamide]	32.3 µM
O=C1NC(=O)c2ccc(-c3cccc4ccccc34)cc2C1=CNCc1ccc(O)c(O)c1 [Example 640, 4-[(3,4-Dihydroxy-benzylamino)-methylene]-6-naphthalen-1-yl-4H-isoquinoline-1,3-dione]	21.9 µM
N#CCc1ccc(NC=C2C(=O)NC(=O)c3ccc(C=Cc4ccccn4)cc32)cc1 [Example 648, (4-{[1,3-Dioxo-6-(2-pyridin-2-yl-vinyl)-2,3-dihydro-1H-isoquinolin-4-ylidenemethyl]-amino}-phenyl)-acetonitrile]	18.6 µM
N#CCc1ccc(NC=C2C(=O)NC(=O)c3ccc(C=Cc4ccncc4)cc32)cc1 [Example 649, (4-{[1,3-Dioxo-6-(2-pyridin-4-yl-vinyl)-2,3-dihydro-1H-isoquinolin-4-ylidenemethyl]-amino}-phenyl)-acetonitrile]	20 µM
N#CCc1ccc(NC=C2C(=O)NC(=O)c3ccc(C=Cc4ccccc4)cc32)cc1 [Example 650, {4-[(1,3-Dioxo-6-styryl-2,3-dihydro-1H-isoquinolin-4-ylidenemethyl)-amino]-phenyl}-acetonitrile]	16.6 µM
NS(=O)(=O)c1ccc(CNC=C2C(=O)NC(=O)c3ccc(C=CCn4ccnc4)cc32)cc1 [Example 657, 4-({[6-(3-Imidazol-1-yl-propenyl)-1,3-dioxo-2,3-dihydro-1H-isoquinolin-4-ylidenemethyl]-amino}-methyl)-benzenesulfonamide]	2.2 µM
O=C1NC(=O)c2ccc(C=CCN3CCNCC3)cc2C1=CNCc1ccc(O)c(O)c1 [Example 666, 4-[(3,4-Dihydroxy-benzylamino)-methylene]-6-(3-piperazin-1-yl-propenyl)-4H-isoquinoline-1,3-dione]	2.5 µM
CN1CCN(c2ccc(NC=C3C(=O)NC(=O)c4ccc(-c5ccc6ccccc6c5)cc43)cc2)CC1 [Example 668, 4-{[4-(4-Methyl-piperazin-1-yl)-phenylamino]-methylene}-6-naphthalen-2-yl-4H-isoquinoline-1,3-dione]	21.9 µM
CN1CCN(c2ccc(NC=C3C(=O)NC(=O)c4ccc(-c5cc6ccccc6s5)cc43)cc2)CC1 [Example 670, 6-Benzo[b]thiophen-2-yl-4-{[4-(4-methyl-piperazin-1-yl)-phenylamino]-methylene}-4H-isoquinoline-1,3-dione]	39.8 µM
CN1CCN(c2ccc(NC=C3C(=O)NC(=O)c4ccc(C=Cc5ccc6ccccc6c5)cc43)cc2)CC1 [Example 674, 4-{[4-(4-Methyl-piperazin-1-yl)-phenylamino]-methylene}-6-(2-naphthalen-2-yl-vinyl)-4H-isoquinoline-1,3-dione]	11.7 µM
CN1CCN(c2ccc(NC=C3C(=O)NC(=O)c4ccc(C=Cc5ccccc5)cc43)cc2)CC1 [Example 677, 4-{[4-(4-Methyl-piperazin-1-yl)-phenylamino]-methylene}-6-styryl-4H-isoquinoline-1,3-dione]	14.3 µM
Cc1ncsc1C=Cc1ccc2c(c1)C(=CNc1ccc(N3CCN(C)CC3)cc1)C(=O)NC2=O [Example 681, 4-{[4-(4-Methyl-piperazin-1-yl)-phenylamino]-methylene}-6-[2-(4-methyl-thiazol-5-yl)-vinyl]-4H-isoquinoline-1,3-dione]	17.7 µM
COc1ccccc1-c1ccc2c(c1)C(=CNc1ccc(N3CCN(C)CC3)cc1)C(=O)NC2=O [Example 683, 6-(2-Methoxy-phenyl)-4-{[4-(4-methyl-piperazin-1-yl)-phenylamino]-methylene}-4H-isoquinoline-1,3-dione]	32.9 µM
CN1CCN(c2ccc(NC=C3C(=O)NC(=O)c4ccc(-c5ccccc5F)cc43)cc2)CC1 [Example 684, 6-(2-Fluoro-phenyl)-4-{[4-(4-methyl-piperazin-1-yl)-phenylamino]-methylene}-4H-isoquinoline-1,3-dione]	12.4 µM
CN1CCN(c2ccc(NC=C3C(=O)NC(=O)c4ccc(-c5cccc(C(=O)O)c5)cc43)cc2)CC1 [Example 686, 3-(4-{[4-(4-Methyl-piperazin-1-yl)-phenylamino]-methylene}-1,3-dioxo-1,2,3,4-tetrahydro-isoquinolin-6-yl)-benzoic acid]	6.4 µM
CN1CCN(c2ccc(NC=C3C(=O)NC(=O)c4ccc(-c5ccc(C(F)(F)F)cc5)cc43)cc2)CC1 [Example 687, 4-{[4-(4-Methyl-piperazin-1-yl)-phenylamino]-methylene}-6-(4-trifluoromethyl-phenyl)-4H-isoquinoline-1,3-dione]	20.9 µM
CN1CCN(c2ccc(NC=C3C(=O)NC(=O)c4ccc(-c5cccc(Cl)c5)cc43)cc2)CC1 [Example 690, 6-(3-Chloro-phenyl)-4-{[4-(4-methyl-piperazin-1-yl)-phenylamino]-methylene}-4H-isoquinoline-1,3-dione]	20.7 µM
Cc1ccc(-c2ccc3c(c2)C(=CNc2ccc(N4CCN(C)CC4)cc2)C(=O)NC3=O)cc1 [Example 692, 4-{[4-(4-Methyl-piperazin-1-yl)-phenylamino]-methylene}-6-p-tolyl-4H-isoquinoline-1,3-dione]	30.7 µM
Cc1cccc(-c2ccc3c(c2)C(=CNc2ccc(N4CCN(C)CC4)cc2)C(=O)NC3=O)c1 [Example 693, 4-{[4-(4-Methyl-piperazin-1-yl)-phenylamino]-methylene}-6-m-tolyl-4H-isoquinoline-1,3-dione]	25.7 µM
Cc1ccccc1-c1ccc2c(c1)C(=CNc1ccc(N3CCN(C)CC3)cc1)C(=O)NC2=O [Example 694, 4-{[4-(4-Methyl-piperazin-1-yl)-phenylamino]-methylene}-6-o-tolyl-4H-isoquinoline-1,3-dione]	32.3 µM
CN1CCN(c2ccc(NC=C3C(=O)NC(=O)c4ccc(-c5cccc(C#N)c5)cc43)cc2)CC1 [Example 695, 3-(4-{[4-(4-Methyl-piperazin-1-yl)-phenylamino]-methylene}-1,3-dioxo-1,2,3,4-tetrahydro-isoquinolin-6-yl)-benzonitrile]	14.3 µM

Reference: patent US7713994B2 (Wyeth LLC, priority 2005, dated 2010)
